From patent publication US20230312510A1, “COMPOUNDS AND METHODS FOR TREATING NEURODEGENERATIVE DISEASES” (The McLean Hospital Corporation, priority 2020, published 2023)
Converted amounts (≈) assume the structure as drawn. “And” between values parts separate entries of the source, which are not always exact repeats. Equal values may be shown once.

Experiments:
N27-A cells [1] = experiment: Protection against MPP+-induced toxicity in N27-A cells (MTT, LDH); conditions: 1 mM MPP+
Nurr1 = molecular target: T1, Nurr1 (Homo sapiens, UniProt P43354); experiment: Relative luciferase activity versus previously reported compounds in SK-N-BE(2)C cells; format: cell-based; conditions: compared with control, AQ, CQ, SM-485, ATH-393, SR-175
T1 construct: expressed in transfected cells; host or cells: SK-N-BE(2)C cells
Excerpt: Each bar indicates Mean±SEM from three independent experiments.

BV2 cells = experiment: LPS-induced TNFα mRNA expression in BV2 cells (real-time PCR); format: cell-based, mouse; conditions: LPS 1 μg/ml, compound 1 μM
Excerpt: (§1) Besides the role as an activator of DAergic genes, Nurr1 is known as a repressor of inflammatory genes in astrocytes and microglia (See Saijo et al., Cell 2009, 137, 47-59).

[2] = test system: mouse embryonic ventral mesencephalic (mVM) primary neurons; experiment: Dopaminergic gene expression in mVM primary neurons with or without 6-OHDA; format: cell-based
Procedure: FIGS. 8A-8D show dopaminergic (DAergic) gene expressions in the absence or presence of 6-OHDA (20 μM) in mouse embryonic ventral mesencephalic (mVM) primary neurons derived from embryonic day 12.5 (E12.5).

Nurr1-LBD [3] = molecular target: T2, Nurr1-LBD (Homo sapiens, UniProt P43354); experiment: Luciferase activity assay (p4xNL3-Luc reporter) with Nurr1-LBD in SK-N-BE(2)C cells; format: cell-based; design: expressed in transfected cells; host or cells: SK-N-BE(2)C human neuroblastoma cells
[4] = pH 7.4
full-length Nurr1 = molecular target: T3, full-length Nurr1 (Homo sapiens, UniProt P43354); experiment: Luciferase activity assay (p4xNL3-Luc reporter) with full-length Nurr1 in SK-N-BE(2)C cells; format: cell-based
T3 construct: expressed in transfected cells; host or cells: SK-N-BE(2)C human neuroblastoma cells

[5] = test system: Nurr1-LBD and full-length Nurr1; experiment: Luciferase activity assay (Nurr1 transactivation) in MN9D cells; format: cell-based, murine
MN9D cells [6] = experiment: Protection against MPP+-induced toxicity in MN9D cells (MTT reduction, LDH release)
Procedure: (§2) Cell viability and cytotoxicity were measured by MTT (3-(4,5-dimethylthiazol-2-yl)-2,5-diphenyltetrazolium bromide) reduction assay.
(§3) Cell viability and cytotoxicity were measured by lactate dehydrogenase (LDH) release assay.

N27-A cells [7] = experiment: Starvation-induced autophagy and Nurr1 expression in N27-A cells with or without MPP+; format: cell-based
Procedure: LC3B, p62 and Nurr1 expression levels determined by Western blot (D) were quantified.
Next, autophagy regulation was assessed in a dopaminergic cell line N27-A in the absence or presence of MPP^+ (1 mM). […] Furthermore, it was observed that MPP disrupted autophagy showing accumulated LC3B-II and remained p62 at the late-stage, which corresponds to the previous studies (See Lim et al., Autophagy 2011, 7, 51-60; Hung et al., PLoS ONE 2014, 9, e91074; Park et al., J Biol Chem 2016, 291, 3531-3540).
Referring to FIGS. 10D-10G, N27-A cells were treated with vehicle or MPP+ (1 mM) for 24 hrs and then changed with fresh growth medium with or without MPP+ 1 hr before starvation. […] To induce autophagy, N27-A cells were incubated in EBSS for 0-4 hrs, in the absence or presence of MPP+. Samples were analyzed by Western blot using autophagic flux markers LC3B and p62 (D) and its expression levels were quantified (10E and 10F). […] (10G) Nurr1 expression level changes were also analyzed and quantified.

[8] = test system: Nurr1-LBD and full-length Nurr1; experiment: Luciferase activity assay (Nurr1 transactivation) in N27-A cells; format: cell-based, murine
[9] = Brain permeability (plasma and brain levels by LC-MS/MS) after i.v. injection; format: in vivo; conditions: rats, 5 mg/kg i.v., 5 min and 1 hr
Procedure: Rats (n=6) were killed at 5 min and 1 hr after i.v. administration, and brain and plasma were collected for blood-brain barrier (BBB) penetration analysis. The concentrations of each compound in plasma (A) and brain (B) were determined by LC-MS/MS (liquid chromatography-tandem mass spectrometry). The brain/plasma ratio (B/P ratio) (C) is calculated at each time point.

MN9D cells [10] = test system: MN9D cells
Procedure: as §2, §3

[11] = test system: MPTP-induced PD model mice; conditions: mouse, in vivo
Procedure: (§4) Sub-chronic MPTP regimen (30 mg/kg/day, 5 days) was introduced.

[12] = test system: mouse bone marrow-derived primary macrophages (mBMMs); experiment: LPS- or poly(I:C)-induced pro-inflammatory gene expression in mBMMs; format: cell-based; conditions: CQ 10 μM, SPV-94 1 μM
Excerpt: as §1

HeLa cells = experiment: Starvation-induced autophagy in HeLa cells (Western blot of LC3B and p62); format: cell-based; conditions: EBSS 0-4 hrs, BafA1 10 nM, CQ 20 μM, SPV-94 1 μM
Procedure: To limit basal autophagy, cells were incubated in fresh growth medium for 1 hr before starvation. Samples were analyzed by Western blot using autophagic flux markers LC3B and p62 (A) and its expression levels were quantified (10B and 10C).

Nurr1-LBD [13] = molecular target: T2, Nurr1-LBD; experiment: Radioligand competition binding assay using [3H]-CQ
[14] = test system: MPTP-induced PD model mice; experiment: Sub-chronic MPTP-induced mice model of PD
Procedure: as §4

[15] = L-DOPA 50, CQ 40, SPV-94 5 mg/kg/day

T3 sequence (P43354 whole entry): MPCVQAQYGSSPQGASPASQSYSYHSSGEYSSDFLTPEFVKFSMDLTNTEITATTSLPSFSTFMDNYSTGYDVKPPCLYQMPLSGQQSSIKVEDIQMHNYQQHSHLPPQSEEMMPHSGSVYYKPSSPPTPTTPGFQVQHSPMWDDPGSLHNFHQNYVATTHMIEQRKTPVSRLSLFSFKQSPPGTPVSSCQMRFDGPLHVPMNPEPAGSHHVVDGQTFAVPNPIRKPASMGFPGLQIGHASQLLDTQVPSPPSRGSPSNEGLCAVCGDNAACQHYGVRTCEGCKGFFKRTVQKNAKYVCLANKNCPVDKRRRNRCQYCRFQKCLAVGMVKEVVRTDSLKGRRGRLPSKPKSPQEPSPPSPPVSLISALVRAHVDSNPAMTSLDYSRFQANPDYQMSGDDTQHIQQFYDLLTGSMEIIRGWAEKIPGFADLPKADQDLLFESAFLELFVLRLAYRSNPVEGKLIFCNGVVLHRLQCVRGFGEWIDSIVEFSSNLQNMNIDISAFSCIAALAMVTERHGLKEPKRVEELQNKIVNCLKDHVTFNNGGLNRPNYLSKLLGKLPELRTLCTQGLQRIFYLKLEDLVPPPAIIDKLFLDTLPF
T2 sequence (P43354 360-595 limits assumed): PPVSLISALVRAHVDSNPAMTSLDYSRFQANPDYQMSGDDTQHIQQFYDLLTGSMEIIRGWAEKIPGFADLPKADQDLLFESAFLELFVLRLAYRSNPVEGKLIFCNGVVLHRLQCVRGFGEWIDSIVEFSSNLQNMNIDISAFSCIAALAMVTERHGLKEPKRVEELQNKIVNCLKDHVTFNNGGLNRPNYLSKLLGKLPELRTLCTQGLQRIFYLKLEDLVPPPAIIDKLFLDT
T1 sequence (P43354 whole entry): as the sequence (P43354 whole entry) above

## CCN1CCN(c2cc(NCCNc3ccnc4cc(Cl)ccc34)nc(N3CCN(CC)CC3)n2)CC1 [SPV-94]
N27-A cells [1]
  cell viability, MTT assay: dose-dependently increased cell viability in MTT assay
Nurr1
  relative luciferase activity (transactivity) among selected candidates: markedly highest transactivity among the selected candidates
BV2 cells
  suppression of TNFα expression compared to LPS only: 20.67%
[2]; 6-OHDA 20 μM, CQ 20 μM, SPV-94 0.5 μM
  DAergic gene expressions downregulated by 6-OHDA toxicity: significant recovery of downregulated DAergic gene expressions
[2]; CQ 20 μM, SPV-94 0.5 μM, vs vehicle
  mRNA expression levels of DAergic genes (TH, DAT, AADC, VMAT2, c-Ret, Pitx3): significantly upregulated mRNA expression levels of DAergic genes
[2]; Nurr1 KD
  effects on DAergic gene expression in Nurr1 knockdown condition: disappeared
Nurr1-LBD [3]; SK-N-BE(2)C cells
  concentration of maximal efficiency, Nurr1-LBD transcriptional activity: 20 µM
Nurr1-LBD [3]; SK-N-BE(2)C cells, read-out: EC50, transcriptional activity of Nurr1-LBD
  EC50: ~10 µM and 10 µM
Nurr1-LBD [3]; versus CQ
  fold lower concentration of maximal efficiency than CQ, Nurr1-LBD: 5 fold
[4]
  solubility: 504.88 µM (≈ 265 µg/mL)
full-length Nurr1; SK-N-BE(2)C cells
  concentration of maximal efficiency, full-length Nurr1 transcriptional activity: 20 µM
full-length Nurr1; SK-N-BE(2)C cells, read-out: EC50, transcriptional activity of full-length Nurr1
  EC50: ~10 µM and 10 µM
full-length Nurr1; versus CQ
  fold lower concentration of maximal efficiency than CQ, full-length Nurr1: 5 fold
[5]
  EC50: ~0.05 µM
  transcriptional activities of Nurr1-LBD and full-length Nurr1: enhanced transcriptional activities
MN9D cells [6]; 500 μM MPP+
  cell viability, MTT reduction assay: dose-dependently increased cell viability
MN9D cells [6]; CQ 100 μM, SPV-94 1 μM, vs Mock
  protective effect against MPP+-induced toxicity under Nurr1 overexpression (OE): potentiated protective effects
N27-A cells [7]; CQ 20 μM, SPV-94 1 μM
  basal Nurr1 expression level compared to VEH: significantly higher
N27-A cells [7]; MPP+ 1 mM
  MPP+-induced autophagy dysregulation (p62 degradation): seemed to protect N27-A cells from MPP+-induced autophagy dysregulation leading to successful p62 degradation
N27-A cells [7]; MPP+ 1 mM, SPV-94 1 μM
  Nurr1 expression against MPP+: maintained Nurr1 expression against MPP+
N27-A cells [7]; starvation 0-4 hrs, BafA1 10 nM, CQ 20 μM, SPV-94 1 μM
  autophagy termination (LC3B, p62): autophagy was successfully terminated
[8]
  EC50: ~0.05 µM
  transcriptional activities of Nurr1-LBD and full-length Nurr1: enhanced transcriptional activities
[9]
  penetration into the brain (brain and plasma concentration, B/P ratio): penetrated into the brain slower than CQ and consistently maintained its level
MN9D cells [10]
  times lower concentration of maximal efficiency than CQ, protection from MPP+-induced cytotoxicity: 10 times
[11]
  dyskinesia in the abnormal involuntary movements (AIMs) test: did not trigger dyskinesia
[12]
  LPS- or poly(I:C)-induced pro-inflammatory gene expressions (TNFα, iNOS, IL-1β, IL-6): dramatically suppressed all four pro-inflammatory gene expressions
HeLa cells
  autophagy process (LC3B, p62): initiated and also terminated autophagy process resulting in significant p62 degradation
Nurr1-LBD [13]
  Ki: 0.0111 µM
Nurr1-LBD [13]; 1,000 nM [3H]-CQ, 0.2 μM Nurr1-LBD, estimated, read-out: half maximal inhibitory concentration (IC50), competition with [3H]-CQ for binding to Nurr1-LBD
  IC50: 0.05 µM
Nurr1-LBD [13]; versus CQ
  times higher affinity to Nurr1-LBD than CQ, based on IC50s: 20 times
[14]
  olfactory discrimination test (olfaction), sub-acute stage: significantly recovered olfaction
[14]; [15]
  body weight recovery: restored it even earlier, after day 6
  cylinder test, rearing numbers, sub-chronic treatment: recovered rearing numbers in the cylinder test
  pole test, time to traverse, sub-chronic treatment: reduced time to traverse on a pole
  rotarod latency to fall, sub-chronic treatment: significantly improved motor deficits on the rotarod latency to fall
[14]; SNpc
  Nurr1-immunoreactive cells: significantly retained Nurr1-immunoreactive cells
[14]; STR
  GFAP immunoreactivity, activated astrocytes: reduced number of activated astrocytes
[14]; STR and SNpc
  Iba-1+ microglia numbers: significantly reduced numbers of Iba-1+ microglia
[14]; STR, SNpc and OB
  TH+ DAergic neurons (counting and densitometry): significantly restored DAergic neurons
[14]; day 14
  olfactory discrimination test (olfaction), chronic treatment: significantly recovered olfaction
[14]; day 15
  rotarod latency to fall, chronic treatment: improved latency to fall on the rotarod on day 15
